# Reference: patent US11173145B2, “Compounds useful as inhibitors of indoleamine 2,3-dioxygenase and/or tryptophan dioxygenase” (Board of Regents, The University of Texas System, priority 2017, dated 2021)
# Target: T1, IDO1 (Homo sapiens, UniProt P14902)
# T1 construct: endogenous in cells; host or cells: HeLa cells (ATCC), IFNgamma-induced
# Assay: IDO1 cell-based assay (HeLa cells, IFNgamma-induced, N-formylkynurenine/L-tryptophan by RFMS)
# Settings: 10 ng/mL IFNgamma, 24 hours
# How it was run: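 N-formylkynurenine and tryptophan peak areas in media measured by RFMS (C18, isocratic, d-Trp standard), giving IC50 values by regression. Source: HeLa cells incubated 24 h with IFNgamma (10 ng/mL) plus test compound at 0.5% DMSO; parallel CellTiter-Glo viability read.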
# T1 sequence (P14902 whole entry): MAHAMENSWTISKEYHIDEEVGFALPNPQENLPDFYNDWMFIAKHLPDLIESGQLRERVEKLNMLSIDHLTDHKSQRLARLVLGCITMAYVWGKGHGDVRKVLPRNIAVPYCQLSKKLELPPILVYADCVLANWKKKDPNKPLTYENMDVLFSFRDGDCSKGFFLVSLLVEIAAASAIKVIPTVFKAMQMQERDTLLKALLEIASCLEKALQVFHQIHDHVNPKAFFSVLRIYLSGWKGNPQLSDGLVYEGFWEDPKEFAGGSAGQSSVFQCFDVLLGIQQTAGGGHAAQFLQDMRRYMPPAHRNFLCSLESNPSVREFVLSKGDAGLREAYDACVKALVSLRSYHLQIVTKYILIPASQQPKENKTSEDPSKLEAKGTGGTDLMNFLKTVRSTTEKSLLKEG
row,SMILES,IC50
1,"CCOC(=O)CC(NC(=O)c1ccc(Cl)cc1)[C@H]1[C@@H]2C[C@@H](Oc3ncnc4ccc(F)cc34)C[C@@H]21 (stereo partly drawn) [Compound 134, ethyl 3-(4-chlorobenzamido)-3-((1R,3s,5S,6r)-3-((6-fluoroquinazolin-4-yl)oxy)bicyclo[3.1.0]hexan-6-yl)propanoate]",< 200 nM
2,"O=C(NC[C@H]1[C@H]2C[C@H](Oc3cc(C(F)(F)F)nc4ccc(F)cc34)C[C@@H]12)c1ccc(Cl)cc1 [Compound 24, 4-chloro-N-(((1R,3s,5S,6s)-3-((6-fluoro-2-(trifluoromethyl)quinolin-4-yl)oxy)bicyclo[3.1.0]hexan-6-yl)methyl)benzamide]",200 to 2000 nM
3,"CCC(NC(=O)c1ccc(Cl)cc1)[C@H]1[C@@H]2C[C@@H](Nc3ccc(C#N)cc3[N+](=O)[O-])C[C@@H]21 (stereo partly drawn) [Compound 269, 4-chloro-N-(1-((1R,3s,5S,6r)-3-((4-cyano-2-nitrophenyl)amino)bicyclo[3.1.0]hexan-6-yl)propyl)benzamide]",< 200 nM
4,"CCC(NC(=O)c1ccc(Cl)cc1)[C@H]1[C@@H]2C[C@@H](NC(=O)N3CCOCC3)C[C@@H]21 (stereo partly drawn) [Compound 157, N-((1R,3s,5S,6r)-6-(1-(4-chlorobenzamido)propyl)bicyclo[3.1.0]hexan-3-yl)morpholine-4-carboxamide]",200 to 2000 nM
5,"O=C(Cc1ccc(Cl)cc1)N[C@H]1[C@@H]2C[C@@H](n3ncc(=O)c4ccccc43)C[C@@H]21 [Compound 85, 2-(4-chlorophenyl)-N-((1R,3s,5S,6r)-3-(4-oxocinnolin-1(4H)-yl)bicyclo[3.1.0]hexan-6-yl)acetamide]",> 5000 nM
6,"CCC(NC(=O)c1ccc(Cl)cc1)C1[C@H]2CC(Oc3cnnc4ccccc34)C[C@@H]12 (stereo partly drawn) [Compound 46, 4-chloro-N-(1-((1R,3s,5S,6r)-3-(cinnolin-4-yloxy)bicyclo[3.1.0]hexan-6-yl)propyl)benzamide]",< 200 nM
7,"CCC(NC(=O)c1ccc(Cl)cc1)[C@H]1[C@@H]2C[C@@H](Oc3ncnc4cc(F)ccc34)C[C@@H]21 (stereo partly drawn) [Compound 35, 4-chloro-N-(1-((1R,3s,5S,6r)-3-((7-fluoroquinazolin-4-yl)oxy)bicyclo[3.1.0]hexan-6-yl)propyl)benzamide]",< 200 nM
8,"CCC(NC(=O)c1ccc(Cl)cc1)[C@H]1[C@@H]2C[C@@H](N3C(=O)CC(C)(C)C3=O)C[C@@H]21 (stereo partly drawn) [Compound 122, 4-chloro-N-(1-((1R,3s,5S,6r)-3-(3,3-dimethyl-2,5-dioxopyrrolidin-1-yl)bicyclo[3.1.0]hexan-6-yl)propyl)benzamide]",2000 to 5000 nM
9,"CCC(NC(=O)c1ccc(Cl)cc1)[C@H]1[C@@H]2C[C@@H](Oc3ccccc3CN(C)C)C[C@@H]21 (stereo partly drawn) [Compound 48, 4-chloro-N-(1-((1R,3s,5S,6r)-3-(2-((dimethylamino)methyl)phenoxy)bicyclo[3.1.0]hexan-6-yl)propyl)benzamide]",2000 to 5000 nM
10,"CCC(NC(=O)c1ccc(Cl)cc1)[C@H]1[C@@H]2C[C@@H](NC(=O)c3cnccn3)C[C@@H]21 (stereo partly drawn) [Compound 152, N-((1R,3s,5S,6r)-6-(1-(4-chlorobenzamido)propyl)bicyclo[3.1.0]hexan-3-yl)pyrazine-2-carboxamide]",< 200 nM
11,"CCC(NC(=O)c1ccc(Cl)cc1)[C@H]1[C@@H]2C[C@@H](Nc3c(F)cc(F)cc3[N+](=O)[O-])C[C@@H]21 (stereo partly drawn) [Compound 264, 4-chloro-N-(1-((1R,3s,5S,6r)-3-((2,4-difluoro-6-nitrophenyl)amino)bicyclo[3.1.0]hexan-6-yl)propyl)benzamide]",< 200 nM
12,"CC[C@@H](NC(=O)N1CCOCC1)[C@H]1[C@@H]2C[C@@H](n3cnc4cc(F)c(F)cc43)C[C@@H]21 [Compound 356, N-((R)-1-((1R,3S,5S,6r)-3-(5,6-difluoro-1H-benzo[d]imidazol-1-yl)bicyclo[3.1.0]hexan-6-yl)propyl)morpholine-4-carboxamide]",2000 to 5000 nM
13,"CCC(NC(=O)c1ccc(Cl)cc1)[C@H]1[C@@H]2C[C@@H](n3cc(C(N)=O)nn3)C[C@@H]21 (stereo partly drawn) [Compound 95, 1-((1R,3s,5S,6r)-6-(1-(4-chlorobenzamido)propyl)bicyclo[3.1.0]hexan-3-yl)-1H-1,2,3-triazole-4-carboxamide]",> 5000 nM
14,"CCC(NC(=O)c1ccc(Cl)cc1)[C@H]1[C@@H]2C[C@@H](n3nc4ccccc4n3)C[C@@H]21 (stereo partly drawn) [Compound 100, N-(1-((1R,3s,5S,6r)-3-(2H-benzo[d][1,2,3]triazol-2-yl)bicyclo[3.1.0]hexan-6-yl)propyl)-4-chlorobenzamide]",< 200 nM
15,"CC(NC(=O)c1ccc(Cl)cc1)[C@H]1[C@@H]2C[C@@H](Oc3ncnc4cc(F)ccc34)C[C@@H]21 (stereo partly drawn) [Compound 70, 4-chloro-N-(1-((1R,3s,5S,6r)-3-((7-fluoroquinazolin-4-yl)oxy)bicyclo[3.1.0]hexan-6-yl)ethyl)benzamide]",< 200 nM
16,"CCC(NC(=O)c1ccc(C#N)cc1)[C@H]1[C@@H]2C[C@@H](Oc3ncnc4ccc(F)cc34)C[C@@H]21 (stereo partly drawn) [Compound 66, 4-cyano-N-(1-((1R,3s,5S,6r)-3-((6-fluoroquinazolin-4-yl)oxy)bicyclo[3.1.0]hexan-6-yl)propyl)benzamide]",< 200 nM
17,"O=C(Cc1ncc(Cl)cc1F)NC1C2CN(c3ccnc4ccc(F)cc34)CC21 (centres unmarked) [Compound 112, 2-(5-chloro-3-fluoropyridin-2-yl)-N-(3-(6-fluoroquinolin-4-yl)-3-azabicyclo[3.1.0]hexan-6-yl)acetamide]",> 5000 nM

# Next, values leading:
row,IC50,SMILES
1,< 200 nM,"CCC(NC(=O)c1ccc(Cl)cc1)[C@H]1[C@@H]2C[C@@H](Oc3cncc(F)c3)C[C@@H]21 (stereo partly drawn) [Compound 58, 4-chloro-N-(1-((1R,3s,5S,6r)-3-((5-fluoropyridin-3-yl)oxy)bicyclo[3.1.0]hexan-6-yl)propyl)benzamide]"
2,< 200 nM,"CCC(NC(=O)c1ccc(Cl)cc1)C1C2CC(Oc3cc(C(F)(F)F)nc4ccc(F)cc34)CC21 [Compound 22, 4-chloro-N-(1-((1R,3s,5S,6r)-3-((6-fluoro-2-(trifluoromethyl)quinolin-4-yl)oxy)bicyclo[3.1.0]hexan-6-yl)propyl)benzamide]"
3,2000 to 5000 nM,"O=C(Cc1ccc(Cl)cc1)N[C@H]1[C@@H]2C[C@@H](n3cnc4ccc(F)cc4c3=O)C[C@@H]21 [Compound 62, 2-(4-chlorophenyl)-N-((1R,3s,5S,6r)-3-(6-fluoro-4-oxoquinazolin-3(4H)-yl)bicyclo[3.1.0]hexan-6-yl)acetamide]"
4,> 5000 nM,"O=C(NC1C2CN(c3ccnc4ccc(F)cc34)CC21)C(O)c1ccc(Br)cc1 (centres unmarked) [Compound 111, 2-(4-bromophenyl)-N-(3-(6-fluoroquinolin-4-yl)-3-azabicyclo[3.1.0]hexan-6-yl)-2-hydroxyacetamide]"
5,200 to 2000 nM,"O=C(NC[C@@H]1[C@H]2C[C@@H](Oc3ccc4nccc(Cl)c4c3)C[C@@H]12)c1ccc(Cl)cc1 [Compound 33, 4-chloro-N-(((1R,3r,5S,6r)-3-((4-chloroquinolin-6-yl)oxy)bicyclo[3.1.0]hexan-6-yl)methyl)benzamide]"
6,< 200 nM,"CCC(NC(=O)c1ccc(Cl)cc1)[C@H]1[C@@H]2C[C@@H](Oc3ncnc4cc(Cl)ccc34)C[C@@H]21 (stereo partly drawn) [Compound 21, 4-chloro-N-(1-((1R,3s,5S,6r)-3-((7-chloroquinazolin-4-yl)oxy)bicyclo[3.1.0]hexan-6-yl)propyl)benzamide]"
7,< 200 nM,"CCC(NC(=O)c1ccc(Cl)cc1)[C@H]1[C@@H]2C[C@@H](Oc3c(F)cccc3F)C[C@@H]21 (stereo partly drawn) [Compound 44, 4-chloro-N-(1-((1R,3s,5S,6r)-3-(2,6-difluorophenoxy)bicyclo[3.1.0]hexan-6-yl)propyl)benzamide]"
8,200 to 2000 nM,"CC[C@@H](NC(=O)c1ccc(C#N)cc1)[C@H]1[C@@H]2C[C@@H](n3cc(C4CCOC4)nn3)C[C@@H]21 (stereo partly drawn) [Compound 295, 4-cyano-N-((1R)-1-((1R,3S,5S,6r)-3-(4-(tetrahydrofuran-3-yl)-1H-1,2,3-triazol-1-yl)bicyclo[3.1.0]hexan-6-yl)propyl)benzamide]"
9,< 200 nM,"CCC(NC(=O)c1ccc(Cl)cc1)[C@H]1[C@@H]2C[C@@H](Oc3ncncc3F)C[C@@H]21 (stereo partly drawn) [Compound 54, 4-chloro-N-(1-((1R,3s,5S,6r)-3-((5-fluoropyrimidin-4-yl)oxy)bicyclo[3.1.0]hexan-6-yl)propyl)benzamide]"
10,< 200 nM,"CCC(NC(=O)c1ccc(Cl)cc1)[C@H]1[C@@H]2C[C@@H](Nc3ccc(Cl)cc3[N+](=O)[O-])C[C@@H]21 (stereo partly drawn) [Compound 270, 4-chloro-N-(1-((1R,3s,5S,6r)-3-((4-chloro-2-nitrophenyl)amino)bicyclo[3.1.0]hexan-6-yl)propyl)benzamide]"
11,< 200 nM,"CCC(NC(=O)c1ccc(C#N)cc1)[C@H]1[C@@H]2C[C@@H](Oc3cnnc4ccccc34)C[C@@H]21 (stereo partly drawn) [Compound 80, N-(1-((1R,3s,5S,6r)-3-(cinnolin-4-yloxy)bicyclo[3.1.0]hexan-6-yl)propyl)-4-cyanobenzamide]"
12,< 200 nM,"CCC(NC(=O)c1ccc2c(c1)OC(F)(F)O2)C1C2CC(Oc3ncnc4ccc(F)cc34)CC21 [Compound 69, 2,2-difluoro-N-(1-((1R,3s,5S,6r)-3-((6-fluoroquinazolin-4-yl)oxy)bicyclo[3.1.0]hexan-6-yl)propyl)benzo[d][1,3]dioxole-5-carboxamide]"
13,> 5000 nM,"O=S(=O)(NC1C2CC(Oc3ccnc4ccccc34)CC21)c1ccc(Cl)cc1 (centres unmarked) [Compound 28, 4-chloro-N-(3-(quinolin-4-yloxy)bicyclo[3.1.0]hexan-6-yl)benzenesulfonamide]"
14,< 200 nM,"C[C@@H](NC(=O)c1ccc(C#N)cc1)[C@H]1[C@@H]2C[C@@H](c3ccnc4ccc(F)cc34)C[C@@H]21 [Compound 278, 4-cyano-N-((R)-1-((1R,3S,5S,6r)-3-(6-fluoroquinolin-4-yl)bicyclo[3.1.0]hexan-6-yl)ethyl)benzamide]"
15,< 200 nM,"CC[C@@H](NC(=O)c1ccc(Cl)cc1)[C@H]1[C@@H]2C[C@@H](Nc3ccccc3C(=O)O)C[C@@H]21 [Compound 346, 2-(((1R,3S,5S,6r)-6-((R)-1-(4-chlorobenzamido)propyl)bicyclo[3.1.0]hexan-3-yl)amino)benzoic acid]"
